# Experimental data reported in patent publication US9834558B2, “Substituted bridged urea analogs as sirtuin modulators” (GLAXOSMITHKLINE LLC, priority 2013, dated 2017).
# Where a name gives a salt, the structure may show the parent alone. Read-outs that look alike come from different tables or passages of the source.
# Target: T1, SIRT1 (Homo sapiens, UniProt Q96EB6)
# T1 sequence (Q96EB6 1-747): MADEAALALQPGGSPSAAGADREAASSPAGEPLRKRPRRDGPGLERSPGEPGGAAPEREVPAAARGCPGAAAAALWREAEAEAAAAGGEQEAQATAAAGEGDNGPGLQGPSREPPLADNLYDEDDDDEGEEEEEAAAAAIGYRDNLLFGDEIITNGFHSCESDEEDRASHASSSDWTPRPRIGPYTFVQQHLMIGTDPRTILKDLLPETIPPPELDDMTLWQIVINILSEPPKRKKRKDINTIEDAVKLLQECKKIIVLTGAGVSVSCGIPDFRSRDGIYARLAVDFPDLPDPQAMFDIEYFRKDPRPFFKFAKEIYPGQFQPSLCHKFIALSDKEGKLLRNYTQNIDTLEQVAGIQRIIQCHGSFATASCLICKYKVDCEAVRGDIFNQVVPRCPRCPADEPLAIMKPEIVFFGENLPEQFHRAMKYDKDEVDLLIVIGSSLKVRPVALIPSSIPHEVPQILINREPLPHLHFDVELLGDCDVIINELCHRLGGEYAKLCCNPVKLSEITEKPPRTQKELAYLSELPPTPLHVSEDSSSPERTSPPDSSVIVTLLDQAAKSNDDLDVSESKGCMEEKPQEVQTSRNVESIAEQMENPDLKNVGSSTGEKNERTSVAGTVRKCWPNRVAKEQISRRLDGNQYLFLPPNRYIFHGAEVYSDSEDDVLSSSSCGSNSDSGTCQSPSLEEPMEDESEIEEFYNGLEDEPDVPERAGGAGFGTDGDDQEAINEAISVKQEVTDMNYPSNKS
# Assay: Trp mass spectrometry assay of SIRT1 activation
# Assay type: biochemical
# Settings: for TRP Activity (EC1.5): EC1.5 = concentration that results in 150% activation of SIRT1
# Procedure, shortened: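 Activation read-out: mass-spec measurement of O-acetyl-ADP-ribose or deacetylated Trp peptide versus compound-free controls, giving EC1.5 and Percent Maximum Activation. Reactions ran 25 min at 25 °C, pH 7.5, with 120 μM βNAD+, 0.5 μM acetylated p53-derived peptide and 10 nM His-tagged SIRT1.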
# [1] = Trp peptide assay, maximum activity relative to control (100%), read-out: TRP MAX RESP (percent maximum fold activation)
# [2] = concentration giving 150% activation of SIRT1, Trp peptide substrate
# [3] = Trp mass spectrometry assay, EC1.5 = concentration of test compound that results in 150% activation of SIRT1
# [4] = Trp peptide substrate, concentration giving 150% activation of SIRT1
# [5] = Trp mass spectrometry assay, concentration of test compound giving 150% activation of SIRT1
structure (smiles),measurement,setting,value
"CN(C)c1cccc(-c2ccc3c(n2)N(C(=O)Nc2cnccn2)[C@H]2CCN3C2)c1 [(9S)-5-[3-(dimethylamino)phenyl]-N-(pyrazin-2-yl)-1,6,8-triazatricyclo[7.2.1.0 {2,7}]dodeca-2(7),3,5-triene-8-carboxamide]",TRP Activity (EC1.5),Trp peptide assay,B (B (EC1.5 1-25 μM))
same,Emax,[1],> 150%
CC(=O)c1ccc(NC(=O)N2c3nc(-c4cccc(C(F)(F)F)c4)ccc3N3CC[C@H]2C3)cc1 [Example 668],Tryp AVG EC1.5 (μM),[2],A (A (EC1.5<1 μM))
O=C(Nc1cncc(F)c1)N1c2nc(-c3cncc(Cl)c3)ccc2N2CCC1CC2 [Example 545],Tryp AVG EC1.5 (μM),[3],B (B (EC1.5 1-25 μM))
O=C(Nc1cnccn1)N1c2nc(-c3cccc(Cl)c3)cc(O)c2N2CCC[C@H]1C2 [Example 443],Tryp AVG EC1.5 (μM),[3],B (B (EC1.5 1-25 μM))
same,Emax,"Trp mass spectrometry assay, percent maximum fold activation of SIRT1, read-out: Tryp % Fold Act",> 150%
CC(=O)c1cccc(NC(=O)N2c3nc(-c4cccc(C(F)(F)F)c4)ccc3N3CC[C@H]2C3)c1 [Example 671],Tryp AVG EC1.5 (μM),[2],A (A (EC1.5<1 μM))
"C[C@H]1CNCCN1c1ccc2c(n1)N(C(=O)Nc1cnccn1)[C@H]1CCN2C1 [(9S)-5-[(2S)-2-methylpiperazin-1-yl]-N-(pyrazin-2-yl)-1,6,8-triazatricyclo[7.2.1.0 {2,7}]dodeca-2,4,6-triene-8-carboxamide]",TRP Activity (EC1.5),Trp peptide assay,C (C (EC1.5>25 μM))
same,Emax,[1],< 150%
O=C(Nc1cccc(Br)n1)N1c2nc(-c3cccc(C(F)(F)F)c3)ccc2N2CC[C@H]1C2 [Example 652],Tryp AVG EC1.5 (μM),[2],A (A (EC1.5<1 μM))
"Cc1cc(-c2ccc3c(n2)N(C(=O)Nc2cnccn2)[C@H]2CCN3C2)c(F)cn1 [(9S)-5-(5-fluoro-2-methylpyridin-4-yl)-N-(pyrazin-2-yl)-1,6,8-triazatricyclo[7.2.1.0 {2,7}]dodeca-2(7),3,5-triene-8-carboxamide]",TRP Activity (EC1.5),Trp peptide assay,B (B (EC1.5 1-25 μM))
same,Emax,[1],> 150%
CC(=O)O[C@H]1CN2C[C@H]1N(C(=O)Nc1ccccn1)c1nc(-c3cccc(C(F)(F)F)c3)ccc12 [Example 634],Tryp AVG EC1.5 (μM),[2],C (C (EC1.5>25 μM))
O=C(Nc1ccc(F)cn1)N1c2nc(-c3ccnc(N4CC[C@H](F)C4)c3)ccc2N2CC[C@H]1C2 [Example 463],Tryp AVG EC1.5 (μM),[3],A (A (EC1.5<1 μM))
O=C(Nc1cc(F)ccn1)N1c2nc(-c3cccc(OC(F)(F)F)c3)ccc2N2CC[C@H]1C2 [Compound 174],Emax,"Trp peptide substrate, percent maximum fold activation of SIRT1, read-out: Tryp % Fold Act",> 150%
CC(=O)c1sc(NC(=O)N2c3nc(-c4cccc(C(F)(F)F)c4)ccc3N3CC[C@H]2C3)nc1C [Example 75],Tryp AVG EC1.5 (μM),[4],A (A (EC1.5<1 μM))
O=C(Nc1cnccn1)N1c2nc(-c3cncc(F)c3)ccc2N2CC[C@H]1C2 [Example 400],Tryp AVG EC1.5 (μM),[5],B (B (EC1.5 1-25 μM))
O=C(Nc1cnccn1)N1c2nc(-c3ccc(Cl)c(Cl)c3)ccc2N2CC[C@H]1C2 [Example 461],Tryp AVG EC1.5 (μM),[3],A (A (EC1.5<1 μM))
Cc1nn(C)cc1NC(=O)N1c2nc(-c3cccc(C(F)(F)F)c3)ccc2N2CC[C@H]1C2 [Example 92],Tryp AVG EC1.5 (μM),[4],B (B (EC1.5 1-25 μM))
O=C(Nc1ncc(-c2ccccc2)s1)N1c2nc(-c3cccc(C(F)(F)F)c3)ccc2N2CC[C@H]1C2 [Example 734],Tryp AVG EC1.5 (μM),[2],B (B (EC1.5 1-25 μM))
O=C(Nc1cccnn1)N1c2nc(-c3cccc(C(F)(F)F)c3)ccc2N2C[C@@H](O)[C@H]1C2 [Example 631],Tryp AVG EC1.5 (μM),[2],B (B (EC1.5 1-25 μM))
O=C(Nc1cccc(-c2cnco2)c1)N1c2nc(-c3cccc(Cl)c3)ccc2N2C[C@@H](O)[C@H]1C2 [Example 683],Tryp AVG EC1.5 (μM),[2],A (A (EC1.5<1 μM))
"O=C(Nc1cnccn1)N1c2nc(N3CCC(C(F)(F)F)CC3)ccc2N2CC[C@H]1C2 [(9S)-N-(pyrazin-2-yl)-5-[4-(trifluoromethyl)piperidin-1-yl]-1,6,8-triazatricyclo[7.2.1.0 {2,7}]dodeca-2(7),3,5-triene-8-carboxamide]",TRP Activity (EC1.5),Trp peptide assay,A (A (EC1.5<1 μM))
same,Emax,[1],> 150%
N#Cc1cccc(-c2ccc3c(n2)N(C(=O)Nc2ccncn2)[C@H]2CCCN3C2)c1 [Example 352],Tryp AVG EC1.5 (μM),[5],A (A (EC1.5<1 μM))
Cc1ccc(-c2ccc3c(n2)N(C(=O)Nc2nc(C)c(C)s2)[C@H]2CCCN3C2)cn1 [Example 506],Tryp AVG EC1.5 (μM),[3],A (A (EC1.5<1 μM))
O=C(Nc1ccncc1)N1c2nc(-c3cccc(Cl)c3)ccc2N2CCC[C@H]1C2 [Example 409],Tryp AVG EC1.5 (μM),[5],A (A (EC1.5<1 μM))
"Cc1ccc(-c2ccc3c(n2)N(C(=O)NC2CCCOC2)[C@H]2CCN3C2)cn1 (stereo partly drawn) [(9S)-5-(6-methylpyridin-3-yl)-N-(oxan-3-yl)-1,6,8-triazatricyclo[7.2.1.0^{2,7}]dodeca-2(7),3,5-triene-8-carboxamide]",TRP Activity (EC1.5),Trp peptide assay,C (C (EC1.5>25 μM))
same,Emax,[1],< 150%
N#Cc1cccc(-c2ccc3c(n2)N(C(=O)Nc2cccnn2)[C@H]2CCCN3C2)c1 [Example 381],Tryp AVG EC1.5 (μM),[5],B (B (EC1.5 1-25 μM))
"C[C@@H]1CN(c2ccc3c(n2)N(C(=O)Nc2cnccn2)[C@H]2CCN3C2)CCN1 [(9S)-5-[(3R)-3-methylpiperazin-1-yl]-N-(pyrazin-2-yl)-1,6,8-triazatricyclo[7.2.1.0 {2,7}]dodeca-2,4,6-triene-8-carboxamide]",TRP Activity (EC1.5),Trp peptide assay,C (C (EC1.5>25 μM))
same,Emax,[1],< 150%
CCC(=O)N1CCC(c2cccc(NC(=O)N3c4nc(-c5cccc(C(F)(F)F)c5)ccc4N4CC[C@H]3C4)c2)C1 (some centres unmarked) [Example 636],Tryp AVG EC1.5 (μM),[2],A (A (EC1.5<1 μM))
"Cc1ccc(-c2ccc3c(n2)N(C(=O)Nc2nc4ccc(F)cc4s2)[C@H]2CCN3C2)cn1 [(9S)-N-(6-fluoro-1,3-benzothiazol-2-yl)-5-(6-methylpyridin-3-yl)-1,6,8-triazatricyclo[7.2.1.0 {2,7}]dodeca-2,4,6-triene-8-carboxamide]",TRP Activity (EC1.5),Trp peptide assay,B (B (EC1.5 1-25 μM))
same,Emax,read-out: TRP MAX RESP (percent maximum fold activation),> 150%
N#Cc1ccccc1-c1ccc2c(n1)N(C(=O)Nc1cncc(F)c1)[C@H]1CCCN2C1 [Example 439],Tryp AVG EC1.5 (μM),[3],B (B (EC1.5 1-25 μM))
[N-]=[N+]=NCc1cc(N=[N+]=[N-])cc(-c2ccc3c(n2)N(C(=O)Nc2cnccn2)[C@H]2CCN3C2)c1 [Example 808],Tryp AVG EC1.5 (μM),[2],A (A (EC1.5<1 μM))
C#CCCCNc1nccc(NC(=O)N2c3nc(-c4ccc(C5(C(F)(F)F)N=N5)cc4)ccc3N3CC[C@H]2C3)n1 [Example 798],Tryp AVG EC1.5 (μM),[2],A (A (EC1.5<1 μM))
same,Emax,"percent maximum fold activation of SIRT1, Trp peptide substrate, read-out: Tryp % Fold Act",> 150%
CS(=O)(=O)c1cccc(-c2ccc3c(n2)N(C(=O)Nc2cc(-c4cnco4)ccn2)[C@H]2CCN3C2)c1 [Example 723],Tryp AVG EC1.5 (μM),[2],A (A (EC1.5<1 μM))
O=C(Nc1cc(-c2cnco2)ccn1)N1c2nc(-c3cccc(C(F)(F)F)c3)ccc2N2CCC1CC2 [Example 595],Tryp AVG EC1.5 (μM),[3],A (A (EC1.5<1 μM))
[N-]=[N+]=NCC(=O)NCc1ccc(NC(=O)N2c3nc(-c4cccc(C(F)(F)F)c4)ccc3N3CC[C@H]2C3)cc1 [Example 799],Tryp AVG EC1.5 (μM),[2],A (A (EC1.5<1 μM))
"Cc1cc(-c2ccc3c(n2)N(C(=O)Nc2ccnnc2)[C@H]2CCN3C2)ccn1 [(9S)-5-(2-methylpyridin-4-yl)-N-(pyridazin-4-yl)-1,6,8-triazatricyclo[7.2.1.0^{2,7}]dodeca-2,4,6-triene-8-carboxamide]",TRP Activity (EC1.5),Trp peptide assay,B (B (EC1.5 1-25 μM))
same,Emax,[1],> 150%
"Cc1ccc(-c2cc(C)c3c(n2)N(C(=O)Nc2cccnc2)[C@H]2CCN3C2)cn1 [(9S)-3-methyl-5-(6-methylpyridin-3-yl)-N-(pyridin-3-yl)-1,6,8-triazatricyclo[7.2.1.0^{2,7}]dodeca-2,4,6-triene-8-carboxamide]",TRP Activity (EC1.5),Trp peptide assay,B (B (EC1.5 1-25 μM))
same,Emax,[1],> 150%
COc1cc(NC(=O)N2c3nc(-c4cccc(C(F)(F)F)n4)ccc3N3CC[C@H]2C3)ncn1 [Example 339],Tryp AVG EC1.5 (μM),[5],B (B (EC1.5 1-25 μM))
Cc1cc(-c2ccc3c(n2)N(C(=O)Nc2ccncn2)[C@H]2CCN3C2)ccn1 [Example 468],Tryp AVG EC1.5 (μM),[3],B (B (EC1.5 1-25 μM))
"NCc1ccc(NC(=O)N2c3nc(-c4cccc(C(F)(F)F)c4)ccc3N3CCC[C@H]2C3)cc1 [444 (4), (9S)—N-(4-(aminomethyl)phenyl)-2-(3-(trifluoromethyl)phenyl)-8,9-dihydro-6H-5,9-methanopyrido[2,3-b][1,4]diazocine-10(7H)-carboxamide hydrochloride]",Tryp AVG EC1.5 (μM),[3],A (A (EC1.5<1 μM))
O=C(NCCN1CCOCC1)N1c2nc(-c3cccc(C(F)(F)F)c3)ccc2N2CC[C@H]1C2 [Example 616],Tryp AVG EC1.5 (μM),[3],B (B (EC1.5 1-25 μM))
